Experimental data as given in patent US20060247220A1, “Preventing the crystallization of cholesterol using oxysterols” (priority 2003, published 2006).

Columns and labels:
rabbits [1] = settings: fed in diet; cited from earlier work
[2] = Crystallization of cholesterol from solution in sunflower seed oil at room temperature; assay type: physicochemical
Experimental: Cholesterol was partially oxidized by heating in an oven with air at 80° C.
A 140 mg portion of the partially oxidized cholesterol was placed in a glass tube and 2.6 mL sunflower seed oil was added. The same amount of oil was added to tubes containing 60, 80, 100, 120 and 140 mg of pure cholesterol. All the tubes were held in a heating block at 95° C. until the sterols were dissolved. They were then held at room temperature (about 24° C.) for at least 3 weeks.
To determine the maximum solubilizing effect of the oxysterols, 35 mg and 70 mg of pure cholesterol were added to tubes containing 140 mg of the partially oxidized cholesterol, and 2.6 mL oil was added to each tube. The mixtures were brought into solution as described above, and held at room temperature.

rabbits [3] = settings: in the diet, hydroperoxides added to cholesterol; cited from earlier work
rabbits [4] = settings: fed in diet; cited from earlier work; remark: listed apart in the source

## CC(C)CCC[C@@H](C)[C@H]1CC[C@H]2[C@@H]3CC=C4C[C@@H](O)CC[C@]4(C)[C@H]3CC[C@]12C [pure cholesterol, cholesterol]
Rabbits [1]
  atherosclerotic lesions: both elevated serum cholesterol and lesions
[2]; 60 mg pure cholesterol in 2.6 mL sunflower seed oil, room temperature
  crystallization on standing: crystallization did not occur
[2]; 80, 100, 120 and 140 mg pure cholesterol in 2.6 mL sunflower seed oil, room temperature (about 24° C.)
  time to complete crystallization: about 1 hour
Rabbits [3]
  atheroma / lesion formation in the aortas: extensive atheroma formation
Rabbits [4]
  atherogenicity: much more atherogenic to rabbits than oxysterols or a mixture of cholesterol and oxysterols
